From patent US12441716B2, “Compositions and methods for increasing muscle mass and oxidative metabolism” (The Regents of the University of California, priority 2019, dated 2025)

How the values were obtained:
[1] = system: endogenous Myosin light chain-2 (Myl2) expression in C2C12 cells; experiment: Myl2 expression in C2C12 cells, RT-PCR normalized to GAPDH; type: cell-based; settings: for Myl2 Relative expression/Gapdh at 2.5 μM: C2C12 cells, relative to GAPDH house-keeping control gene
Procedure: Bioactivity data of AMBMP analogs 1-6, 17, 18, and 25. Dose dependent effect of AMBMP analogs 1-6, 17, 18, and 25 on endogenous Myosin light chain-2 (Myl2) expression in C2C12 cells is shown in FIG. 16 A.
Effect of 2.5 μM AMBMP analog 1-6, 8, 17, 21, 25, 38, 39, and 40 on Myl2 expression relative to GAPDH (house-keeping control gene) in C2C12 cells is shown in Table 1. Myl2 is a marker of CaMKIIβ activity.
AMBMP analog 40 was tested in C2C12 myogenic cells for its ability to induce expression of Myl2. C2C12 cells were treated with AMBMP or AMBMP analog 40 for 48 hrs (concentrations are indicated on the graph); DMSO was used as a negative control. Expression of Myl2 was assessed by RT-PCR and normalized to GAPDH as a house-keeping control gene.

CaMKIIβ [2] = molecular target: T1, CaMKIIβ (Mus musculus, UniProt P28652); experiment: CaMKIIβ activity in mice treated for 2 weeks; type: in vivo; settings: i.p. 7.5 mg/kg/day for 2 weeks
T1 construct: from tissue; host or cells: tissue of treated C3KO and WT mice
T1 sequence (P28652 whole entry): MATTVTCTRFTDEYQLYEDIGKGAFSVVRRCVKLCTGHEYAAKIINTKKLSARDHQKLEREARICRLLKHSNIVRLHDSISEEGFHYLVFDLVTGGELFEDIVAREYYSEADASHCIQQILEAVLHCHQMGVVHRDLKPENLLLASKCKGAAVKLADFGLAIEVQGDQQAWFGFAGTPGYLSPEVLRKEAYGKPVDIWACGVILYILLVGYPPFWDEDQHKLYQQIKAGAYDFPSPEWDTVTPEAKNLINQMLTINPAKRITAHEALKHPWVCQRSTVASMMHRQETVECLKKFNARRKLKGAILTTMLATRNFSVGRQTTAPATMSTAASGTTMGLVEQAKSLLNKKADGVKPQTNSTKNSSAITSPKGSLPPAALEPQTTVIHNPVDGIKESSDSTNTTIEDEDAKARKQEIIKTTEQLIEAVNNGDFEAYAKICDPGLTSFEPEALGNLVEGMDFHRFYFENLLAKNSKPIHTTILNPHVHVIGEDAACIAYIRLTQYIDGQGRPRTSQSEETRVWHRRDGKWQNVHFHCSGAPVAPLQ
Source text: (§1) Shown in FIG. 14, C3KO mice treated with AMBMP have normalized CaMKIIβ activity, but AKT or AMPK signaling are not affected.

C3KO mice [3] = experiment: Mitochondrial function / mitochondrial content (NADH staining) in muscles of treated C3KO mice; type: in vivo
Procedure: (§2) Average cross-sectional area (CSA) measured in muscle cross sections after staining for fiber type. […] A) C3KO mice i.p. injected with AMBMP hydrochloride (7.5 mg/kg/day) for 14 days. B) C3KO mice treated AMBMP hydrochloride (7.5 mg/kg/day) for 14 days by subcutaneous (subQ) injection.
One set of C3KO mice were i.p. injected with AMBMP hydrochloride (7.5 mg/kg/day) for 14 days, another set of C3KO mice were i.p. injected with AMBMP hydrochloride (15 mg/kg/day) for 14 days and a control set of C3KO mice were not treated with AMBMP. Percent of total fibers with high mitochondrial content and intermediate mitochondrial content increased with AMBMP treatment in a dose dependent manner, and percent of total fibers with low mitochondrial content decreased with AMBMP treatment in a dose dependent manner (FIG. 12A). […] Quantification of NADH staining on plantaris muscles from AMBMP-treated mice (either 7.5 or 15 mg/kg, for 2 weeks (wks)) shown as a ratio of FOG:FG fibers. *p<0.05.

AKT = AKT signaling in treated C3KO mice; type: in vivo; settings: i.p. 7.5 mg/kg/day for 2 weeks
Source text: as §1

C3KO mice [4] = experiment: Muscle fiber cross-sectional area in treated C3KO mice; type: in vivo; settings: 7.5 mg/kg/day for 14 days, i.p. or subQ injection
Procedure: as §2

AMPK = AMPK signaling in treated C3KO mice; type: in vivo; settings: i.p. 7.5 mg/kg/day for 2 weeks
Source text: as §1

C3KO mice [5] = experiment: Exercise performance after endurance training in C3KO mice; type: in vivo; settings: i.p. 7.5 mg/kg/day for 14 days, 3-week endurance training
Source text: Shown in FIG. 13, AMBMP treatment leads to improved exercise performance. Mice were subjected to endurance training over a 3-week period while being treated. Exercise performance was compared between pre and post exercise condition. Wild type (WT) mice were not treated with AMBMP.

C2C12 myogenic cells = experiment: Tolerance of C2C12 myogenic cells to compound; type: cell-based; settings: data not shown
CaMKIIβ [6] = molecular target: T1, CaMKIIβ; experiment: CaMKIIβ activation in mouse skeletal muscles after injection, western blot with anti-phospho CaMKIIβ antibody; type: in vivo; settings: mice, 10 mg/kg intraperitoneally; muscles collected 2, 4 and 6 hrs after injection; DMSO control
Procedure: Mice were injected intraperitoneally with 10 mg/kg of AMBMP analog 3. Skeletal muscles were collected at 2, 4 and 6 hrs after injection. Mice injected with DMSO were used as a control group.

[7] = log P (partition coefficient between organic and aqueous phase); type: physicochemical
Source text: It has been determined that compounds having a chemical structure of Formula I and/or Formula VII, or a pharmaceutically acceptable salt or solvate thereof, can increase muscle mass and muscle function. These chemicals can be effective in treating muscular dystrophy, such as limb girdle muscular dystrophy type 2A/R1/D1. Not to be bound by theory, it is believed that these compounds may provide their biological effect by over-riding the CAMKII signaling block by activating CaMKII. Accordingly, these can increase muscle size, mitochondrial complex I and II activity, expression of genes that comprise the slow fiber phenotype and running performance. Embodiments of the current disclosure is directed to compositions and methods of use for compounds having a chemical structure of Formula I and/or Formula VII, or a pharmaceutically acceptable salt or solvate thereof, that show similar or higher activity on CAMKII signaling as of AMBMP, but are less toxic and/or more soluble than AMBMP (Formula VI). […] One or more compounds having a chemical structure of Formula I and/or Formula VII, can have a EC50 potency of <1 uM on endogenous myosin light chain 2 (Myl2) promoter in C2C12 cells. The compounds can have a solubility >10 uM in water at standard temperature and pressure. […] Toxicity can be measured as a dose dependent effect of the compounds on cell death of C2C12 cells.

Capn3−/− muscles = experiment: Percent slow myosin heavy chain positive fibers in soleus of calpainopathy mice; type: in vivo; settings: daily for 2 wks at 30 mg/kg subQ

With `CC(C)(C)Oc1cccc(-c2cc(NCc3ccc4c(c3)OCO4)nc(N)n2)c1` [AMBMP Analog 6] the “Myl2 Relative expression/Gapdh at 2.5 μM” value [1] was 1.2.
For `CCCOc1cccc(-c2cc(NCc3ccc4c(c3)OCO4)nc(N)n2)c1` [AMBMP Analog 5], the “Myl2 Relative expression/Gapdh at 2.5 μM” value [1] was 0.6.
With `COc1cccc(-c2cc(NCc3ccc4c(c3)OCO4)nc(N)n2)c1.Cl` [AMBMP hydrochloride] the “CaMKIIβ activity over untreated control” value (CaMKIIβ [2]; C3KO mice) was “increased CaMKIIβ activity”, the “CaMKIIβ activity over untreated control” value (CaMKIIβ [2]; WT mice) was “increased CaMKIIβ activity” and the “mitochondrial function compared to control” value (C3KO mice [3]; i.p. 7.5 mg/kg/day for 14 days) was “improved mitochondrial function”. For the same molecule, the mitochondrial content (C3KO mice [3]; i.p. 7.5 or 15 mg/kg/day for 14 days, plantaris muscles) was “increased mitochondrial content in a dose dependent manner”, the AKT signaling (AKT) was “without impacting” and the “cross-sectional area of slow fibers” value (C3KO mice [4]) was “significantly increased”. For the same molecule, the “cross-sectional area, both fiber types” value (C3KO mice [4]) was “increase”, the AMPK signaling (AMPK) was “without impacting” and the “exercise performance pre vs post endurance training” value (C3KO mice [5]) was “show a training effect”.
With `Nc1nc(NCc2ccc3c(c2)OCO3)cc(-c2ccc(OC(F)(F)F)cc2)n1` [AMBMP Analog 17] the “Myl2 Relative expression/Gapdh at 2.5 μM” value [1] was 0.2.
For `CCOc1cccc(-c2cc(NCc3ccc4c(c3)OCO4)nc(N)n2)c1` [AMBMP Analog 4], the “Myl2 Relative expression/Gapdh at 2.5 μM” value [1] was 2.
In the case of `COc1cc(O)cc(-c2cc(NCc3ccc4c(c3)OCO4)nc(N)n2)c1` [AMBMP Analog 40, 3-(2-amino-6-((benzo[d][1,3]dioxol-5-ylmethyl)amino)pyrimidin-4-yl)-5-methoxyphenol], the “Myl2 Relative expression/Gapdh at 2.5 μM” value [1] is reported as 1.2, the “increase of Myl2 expression” value ([1]; C2C12 myogenic cells treated 48 hrs (1.25 μM, 5 μM), RT-PCR normalized to GAPDH, DMSO negative control) is reported as 2.5-2.9 fold and the “tolerance by the cells compared to AMBMP” value (C2C12 myogenic cells) is reported as “better tolerated”.
With `Nc1nc(NCc2ccc3c(c2)OCO3)cc(-c2cccc(O)c2)n1` [AMBMP Analog 3, 3-(2-amino-6-((benzo[d][1,3]dioxol-5-ylmethyl)amino)pyrimidin-4-yl)phenol] the “phospho-CaMKIIβ (P-CaMK) in skeletal muscles” value (CaMKIIβ [6]) was “CaMKIIβ activation”, the “Myl2 Relative expression/Gapdh at 2.5 μM” value [1] was 0.4 and the logP [7] was 2.47.
With `COc1cccc(-c2cc(NCc3ccc4c(c3)OCO4)nc(N)n2)c1` [AMBMP] the “Myl2 Relative expression/Gapdh at 2.5 μM” value [1] was 1.4 and the “% slow myosin heavy chain positive fibers in soleus” value (Capn3−/− muscles) was “Statistically significant shift”.
